The source of these data is US8450525B2, “Histone deacetylase inhibitors” (Orchid Chemicals & Pharmaceuticals Limited, priority 2007, dated 2013).

The test system of test [1] is T1, HDAC (Mouse Liver Extract).
T1 construct: Mouse liver enzyme (10 mg/ml) was diluted 1:6 with HDAC buffer
Nature of the test: HDAC inhibition assay using Boc-Lys(Ac)-AMC substrate, mouse liver enzyme.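 As to pIC50: IC50 for inhibition of HDAC activity in mouse liver extract.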 It counts as biochemical.

The next test concerns HCT 116 (colon) cells. Nature of the test: Anti-cancer screen, growth inhibition (MTT). It counts as cell-based. The conditions noted are these: Homo sapiens, HCT-116 cells, 48 hours of incubation. A digest of the protocol: (§1)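 MTT added for 3 h at 37° C, formazan dissolved in DMSO and A570 read. A T0 plate was measured at compound addition.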
Another test has as its system NCI-H460 (lung) cells. Kind of test: Anti-cancer screen, growth inhibition (MTT). It counts as cell-based. The conditions noted are these: Homo sapiens, 48 hours of incubation. A digest of the protocol: as §1
The subject of the next test is U251 (glioma) cells. Nature of the test: Anti-cancer screen, growth inhibition (MTT). It counts as cell-based. The conditions noted are these: Homo sapiens, U-251 cells, 48 hours of incubation. The gist of the method: as §1

pIC50: −log10 of the molar value. Where only a bound is given, the exact number is not on record here.

`O=C(/C=C/c1ccc(/C=C(/C(=O)NC2CC2)c2ccccc2F)cc1)NCCCCCC(=O)NO` [Example 78, 6-((1E)-3-(4-(3-(Cyclopropylamino)-2-(2-fluorophenyl)-3-oxoprop-1-en-1-yl)phenyl)acrylamido)-N-hydroxyhexanamide]: in test [1], the “HDAC Inhibition % (1 μM)” value was 98.1%. For the same molecule, the “HDAC Inhibition % (10 μM)” value in test [1] turned out to be 99.9%. The 50% growth inhibitory concentration (GI50) was 5.6 µM with HCT 116 (colon) cells, 10.3 µM with NCI-H460 (lung) cells and 22 µM in the test with U251 (glioma) cells.

With `O=C(/C=C/c1ccc(/C=C(/C(=O)NC2CC2)c2ccc3c(c2)OCO3)cc1)NCCCCCC(=O)NO` [Example 79, 6-((1E)-3-(4-(3-(Cyclopropylamino)-2-[benzodioxol-5-yl]-3-oxoprop-1-en-1-yl)phenyl)acrylamido)-N-hydroxyhexanamide], in test [1], the pIC50 is 7.85, the “HDAC Inhibition % (1 μM)” value is listed as 99.1% and the “HDAC Inhibition % (10 μM)” value was 100.0%. Further, the GI50 in the test with HCT 116 (colon) cells is 8.2 µM. Further, the GI50 in the test with NCI-H460 (lung) cells turned out to be 2.2 µM. The same molecule displayed a 50% growth inhibitory concentration (GI50) with U251 (glioma) cells of 3.2 µM.

Regarding `O=C(/C=C/c1ccc(/C=C(/C(=O)NC2CC2)c2cccc(Cl)c2)cc1)NCCCCCC(=O)NO` [Example 80, 6-((1E)-3-(4-(3-(Cyclopropylamino)-2-(3-chlorophenyl)-3-oxoprop-1-en-1-yl)phenyl)acrylamido)-N-hydroxyhexanamide], in test [1], the negative logarithm of the IC50 (pIC50) is more than 9.00, the “HDAC Inhibition % (1 μM)” value is reported as 100.0% and the “HDAC Inhibition % (10 μM)” value was found to be 100.0%. The GI50 in the test on HCT 116 (colon) cells came to 4 µM. In the test on NCI-H460 (lung) cells, the GI50 was determined as 19 µM. The molecule further registered a GI50 in the test on U251 (glioma) cells of 0.8 µM.

With `Cc1ccc(/C(=C\c2ccc(/C=C/C(=O)NCCCCCC(=O)NO)cc2)C(=O)NC2CC2)cc1` [Example 81, 6-((1E)-3-(4-(3-(Cyclopropylamino)-2-(4-methylphenyl)-3-oxoprop-1-en-1-yl)phenyl)acrylamido)-N-hydroxyhexanamide], in test [1], the pIC50 is 8.00, the “HDAC Inhibition % (1 μM)” value is listed as 97.0% and the “HDAC Inhibition % (10 μM)” value was 100.0%. In addition, the concentration for 50% growth inhibition (GI50) in the test on HCT 116 (colon) cells came to 5 µM. Moreover, growth in the test on NCI-H460 (lung) cells was halved (GI50) at 11 µM. The same molecule came in with a GI50 in the test on U251 (glioma) cells of 0.4 µM.

Consider `O=C(/C=C/c1ccc(/C=C(/C(=O)NC2CC2)c2ccccc2)cc1)NCCCCCC(=O)NO` [Example 82, 6-((1E)-3-(4-(3-(cyclopropylamino)-2-phenyl-3-oxoprop-1-enyl)phenyl)acrylamido)-N-hydroxyhexanamide], for which, in test [1], the pIC50 is 8.07. The “HDAC Inhibition % (1 μM)” value in test [1] is 93.2%. Moreover, the “HDAC Inhibition % (10 μM)” value in test [1] is 98.6%. Besides, the GI50 with HCT 116 (colon) cells is 3 µM; with NCI-H460 (lung) cells, 1 µM; in the test on U251 (glioma) cells it was 7 µM.

In the case of `COc1ccc(/C(=C\c2ccc(/C=C/C(=O)NCCCCCC(=O)NO)cc2)C(=O)NC2CC2)cc1` [Example 84, 6-((1E)-3-(4-(3-(Cyclopropylamino)-2-(4-methoxyphenyl)-3-oxoprop-1-en-1-yl)phenyl)acrylamido)-N-hydroxyhexanamide], the “HDAC Inhibition % (1 μM)” value in test [1] turned out to be 93.5%. Further, the “HDAC Inhibition % (10 μM)” value in test [1] was 96.5%. Further, the GI50 in the test with HCT 116 (colon) cells stood at 24 µM; in the test on NCI-H460 (lung) cells it was 70 µM; in the test with U251 (glioma) cells it was 24 µM.

Take `COc1cccc(/C(=C\c2ccc(/C=C/C(=O)NCCCCCC(=O)NO)cc2)C(=O)NC2CC2)c1` [Example 85, 6-((1E)-3-(4-(3-(Cyclopropylamino)-2-(3-methoxyphenyl)-3-oxoprop-1-en-1-yl)phenyl)acrylamido)-N-hydroxyhexanamide]: the “HDAC Inhibition % (1 μM)” value in test [1] is given as 96.0%. In test [1], the “HDAC Inhibition % (10 μM)” value is given as 100.0%. Also, the GI50 came out at 26 µM in the test on HCT 116 (colon) cells, 69 µM with NCI-H460 (lung) cells and 10.1 µM with U251 (glioma) cells.

`O=C(/C=C/c1ccc(/C=C(/C(=O)N2CCOCC2)c2ccc(F)cc2)cc1)NCCCCCC(=O)NO` [Example 86, 6-((1E)-3-(4-(3-(Morpholino)-2-(4-fluorophenyl)-3-oxoprop-1-enyl)phenyl)acrylamido)-N-hydroxyhexanamide]: the “HDAC Inhibition % (1 μM)” value in test [1] came out at 95.6%. Besides, in test [1], the “HDAC Inhibition % (10 μM)” value is given as 98.6%. Besides, the GI50 amounted to 19 µM in the test on HCT 116 (colon) cells, 50 µM in the test with NCI-H460 (lung) cells and 10.5 µM with U251 (glioma) cells.

Consider `O=C(/C=C/c1ccc(/C=C(/C(=O)N2CCOCC2)c2ccccc2F)cc1)NCCCCCC(=O)NO` [Example 87, 6-((1E)-3-(4-(3-(Morpholino)-2-(2-fluorophenyl)-3-oxoprop-1-en-1-yl)phenyl)acrylamido)-N-hydroxyhexanamide], for which the “HDAC Inhibition % (1 μM)” value in test [1] was 91.0%. Moreover, the “HDAC Inhibition % (10 μM)” value in test [1] amounted to 98.6%. Also, the GI50 with HCT 116 (colon) cells was 40 µM; in the test on NCI-H460 (lung) cells, 70 µM; in the test with U251 (glioma) cells, 20 µM.

Take `COc1ccc(/C(=C\c2ccc(/C=C/C(=O)NCCCCCC(=O)NO)cc2)C(=O)NC2CC2)cc1F` [Example 88, 6-((1E)-3-(4-(3-(Cyclopropylamino)-2-(3-fluoro-4-methoxyphenyl)-3-oxoprop-1-en-1-yl)phenyl)acrylamido)-N-hydroxyhexanamide]: the “HDAC Inhibition % (1 μM)” value in test [1] was 97.9%. Moreover, the “HDAC Inhibition % (10 μM)” value in test [1] was 98.8%. Further, the GI50 in the test on HCT 116 (colon) cells is 11 µM; in the test on NCI-H460 (lung) cells it was more than 100 µM; in the test on U251 (glioma) cells it was 18 µM.

Regarding `O=C(/C=C/c1ccc(/C=C(/C(=O)NC2CC2)c2ccc(F)cc2)cc1)NCc1ccc(C(=O)NO)cc1` [Example 89, 4-(((1E)-3-(4-(3-(Cyclopropylamino)-2-(4-fluorophenyl)-3-oxoprop-1-en-1-yl)phenyl)acrylamido)methyl)-N-hydroxybenzamide], the “HDAC Inhibition % (1 μM)” value in test [1] amounted to 42.1%. Moreover, in test [1], the “HDAC Inhibition % (10 μM)” value was determined as 70.3%. Besides, the results for the GI50 with HCT 116 (colon) cells, in the test with NCI-H460 (lung) cells and in the test on U251 (glioma) cells were 40 µM, more than 100 µM and 13 µM, respectively.

Consider `O=C(/C=C/c1ccc(/C=C(/C(=O)NC2CC2)c2ccccc2Cl)cc1)NCc1ccc(C(=O)NO)cc1` [Example 90, 4-(((1E)-3-(4-(3-(Cyclopropylamino)-2-(2-chlorophenyl)-3-oxoprop-1-en-1-yl)phenyl)acrylamido)methyl)-N-hydroxybenzamide], for which, in test [1], the pIC50 is 7.89, the “HDAC Inhibition % (1 μM)” value stood at 94.6% and the “HDAC Inhibition % (10 μM)” value was determined as 100.0%. Also, growth in the test on HCT 116 (colon) cells was halved (GI50) at 3.5 µM. The GI50 in the test with NCI-H460 (lung) cells was 11 µM. The molecule further returned a GI50 in the test with U251 (glioma) cells of 4.5 µM.

Consider `O=C(/C=C/c1ccc(/C=C(/C(=O)NC2CC2)c2cccc(Cl)c2)cc1)NCc1ccc(C(=O)NO)cc1` [Example 91, 4-(((1E)-3-(4-(3-(Cyclopropylamino)-2-(3-chlorophenyl)-3-oxoprop-1-en-1-yl)phenyl)acrylamido)methyl)-N-hydroxybenzamide], for which, in test [1], the pIC50 was more than 9.00, the “HDAC Inhibition % (1 μM)” value was 99.8% and the “HDAC Inhibition % (10 μM)” value was 100.0%. Besides, the GI50 in the test with HCT 116 (colon) cells turned out to be 0.2 µM. In the test on NCI-H460 (lung) cells, this molecule gave a GI50 of 25 µM. In the test on U251 (glioma) cells, this molecule registered a GI50 of 0.2 µM.

As for `Cc1ccc(/C(=C\c2ccc(/C=C/C(=O)NCc3ccc(C(=O)NO)cc3)cc2)C(=O)NC2CC2)cc1` [Example 92, 4-(((1E)-3-(4-(3-(Cyclopropylamino)-2-(4-methylphenyl)-3-oxoprop-1-en-1-yl)phenyl)acrylamido)methyl)-N-hydroxybenzamide], in test [1], the pIC50 is 8.77, the “HDAC Inhibition % (1 μM)” value came to 85.8% and the “HDAC Inhibition % (10 μM)” value amounted to 99.7%. Further, in the test with HCT 116 (colon) cells, the GI50 is 3 µM. In the test on NCI-H460 (lung) cells, this molecule had a GI50 of 0.1 µM. In the test on U251 (glioma) cells, the GI50 was 24 µM.

Take `O=C(/C=C/c1ccc(/C=C(/C(=O)NC2CC2)c2ccccc2)cc1)NCc1ccc(C(=O)NO)cc1` [Example 93, 4-(((1E)-3-(4-(3-(Cyclopropylamino)-2-phenyl-3-oxoprop-1-en-1-yl)phenyl)acrylamido)methyl)-N-hydroxybenzamide]: the “HDAC Inhibition % (1 μM)” value in test [1] was found to be 74.0%. In test [1], the “HDAC Inhibition % (10 μM)” value was found to be 91.6%. For the same molecule, the results for the concentration for 50% growth inhibition (GI50) with HCT 116 (colon) cells, in the test on NCI-H460 (lung) cells and in the test with U251 (glioma) cells were 35 µM, 32 µM and 52 µM, respectively.

As to `COc1ccc(/C(=C\c2ccc(/C=C/C(=O)NCc3ccc(C(=O)NO)cc3)cc2)C(=O)NC2CC2)cc1` [Example 95, 4-(((1E)-3-(4-(3-(Cyclopropylamino)-2-(4-methoxyphenyl)-3-oxoprop-1-en-1-yl)phenyl)acrylamido)methyl)-N-hydroxybenzamide], in test [1], the “HDAC Inhibition % (1 μM)” value came out at 97.6%. Moreover, the “HDAC Inhibition % (10 μM)” value in test [1] was 100.0%. Further, the GI50 in the test on HCT 116 (colon) cells was found to be 4 µM; in the test with NCI-H460 (lung) cells, 90 µM; in the test with U251 (glioma) cells it was 15 µM.

Take `O=C(/C=C/c1ccc(/C=C(/C(=O)N2CCOCC2)c2ccc(F)cc2)cc1)NCc1ccc(C(=O)NO)cc1` [Example 96, 4-(((1E)-3-(4-(3-(Morpholino)-2-(4-fluorophenyl)-3-oxoprop-1-en-1-yl)phenyl)acrylamido)methyl)-N-hydroxybenzamide]: the “HDAC Inhibition % (1 μM)” value in test [1] is listed as 100.0%. For the same molecule, the “HDAC Inhibition % (10 μM)” value in test [1] is reported as 100.0%. For the same molecule, the GI50 with HCT 116 (colon) cells is 85 µM; in the test with NCI-H460 (lung) cells, more than 100 µM; with U251 (glioma) cells, 5 µM.

Regarding `COc1cccc(/C(=C\c2ccc(/C=C/C(=O)NCc3ccc(C(=O)NO)cc3)cc2)C(=O)NC2CC2)c1` [Example 97, 4-(((1E)-3-(4-(3-(Cyclopropylamino)-2-(3-methoxyphenyl)-3-oxoprop-1-en-1-yl)phenyl)acrylamido)methyl)-N-hydroxybenzamide], in test [1], the pIC50 is 8.60, the “HDAC Inhibition % (1 μM)” value is given as 100.0% and the “HDAC Inhibition % (10 μM)” value came to 100.0%. Besides, halving of growth in the test on HCT 116 (colon) cells (GI50) required 6.5 µM. Moreover, in the test on NCI-H460 (lung) cells, the GI50 worked out at 7.5 µM. Moreover, in the test on U251 (glioma) cells, it took 2.3 µM to inhibit growth by half (GI50).
